Experimental data taken from US20250340837A1, “CELLS” (University of Geneva, priority 2022, published 2025).

Test system: C57Bl/6 otic progenitors
Experiment: Stemness reprogramming and regeneration in hair cell progenitors
Assay type: cell-based, mouse
Conditions: 30 days, with CHIR99021 3 μM
Procedure: C57Bl/6 otic progenitors were plated at 10,000 cells/well of a 96 well plate and treated with WNT agonist (CHIR99021; 3 μM) and the above mentioned compounds for 30 days. (A) Graph representing the average growth (% otic progenitors cultured in presence of GF+CHIR) after 30 days. […] Data represent the average±SEM of three independent experiments.
For reprogramming stemness of auditory hair cells, C57Bl/6 otic progenitors were plated at 10,000 cells/well of a 96 well plate and treated with WNT agonist (CHIR99021; 3 μM) and the above mentioned compounds for 30 days.

SMILES: COc1cc(-c2cc(-c3ccc(N4CCNCC4)cc3)cnc2C)cc(OC)c1OC [compound 51, LDN-214117]
- stemness reprogramming, average growth (% otic progenitors cultured in presence of GF+CHIR): particularly good candidates
